Test results taken from patent US8426429B2, “2-amino-quinazoline derivatives useful as inhibitors of β-secretase (BACE)” (Jansssen Pharmaceutica N.V., priority 2004, dated 2013).

Target: T1, β-secretase (BACE) (Homo sapiens, UniProt P56817)
T1 construct: purchased Panvera
Test: BACE FS1 % Inhibition Assay
Type: biochemical
Procedure, shortened: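 Percent inhibition per compound concentration was referenced to vehicle-treated enzyme and no-enzyme wells. Enzyme at a 4 μg/mL working stock plus compound was mixed for 20 min at room temperature before the FS1 substrate (300 μg/mL working stock) was added for a 1 h room-temperature reaction.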

T1 sequence (P56817 46-501): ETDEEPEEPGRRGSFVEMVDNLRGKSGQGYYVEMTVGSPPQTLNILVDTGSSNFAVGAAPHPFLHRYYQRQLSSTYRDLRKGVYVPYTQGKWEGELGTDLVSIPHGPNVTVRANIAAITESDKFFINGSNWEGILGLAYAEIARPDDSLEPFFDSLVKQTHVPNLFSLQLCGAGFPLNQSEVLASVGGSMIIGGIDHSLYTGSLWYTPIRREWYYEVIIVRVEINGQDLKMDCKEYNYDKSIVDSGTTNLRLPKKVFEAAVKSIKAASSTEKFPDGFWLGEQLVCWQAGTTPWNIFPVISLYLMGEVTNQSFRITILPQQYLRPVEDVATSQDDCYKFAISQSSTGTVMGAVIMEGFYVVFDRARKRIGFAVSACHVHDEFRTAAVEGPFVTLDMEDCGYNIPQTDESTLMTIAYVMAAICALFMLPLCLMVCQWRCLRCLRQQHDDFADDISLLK

SMILES	% Inhibition (FS) (0.3 μM test compound) [%]	% Inhibition (FS) (1 μM test compound) [%]	% Inhibition (FS) (3 μM test compound) [%]	also measured
CN(C(=O)CCC(C1CCOCC1)N1Cc2cc(Oc3ccccc3)ccc2N=C1N)C1CCC(C(=O)O)CC1 (centres unmarked) [Compound 743]				% Inhibition (FS) (3 μM compound, FS1 substrate): 130%
NC1=Nc2ccc(-c3ccccc3Cl)cc2CN1CCNC(=O)C1CCC1 [Compound 649]	34	65	95	
NC1=Nc2ccc(Oc3ccccc3)cc2CN1CCCNC1CCCCC1 [Compound 403]	<30	<30	66	
CN(C(=O)c1cccc(CN2Cc3cc(-c4cccc(C(=O)O)c4)ccc3N=C2N)c1)C1CCCCC1 [Compound 163]	<30	33	<30	
CC(C)(C)OC(=O)N1CCCCC(N2Cc3cc(Oc4ccccc4)ccc3N=C2N)C1 (centres unmarked) [Compound 510]	<30	<30	37	
NC1=Nc2ccc(-c3cnc4ccccc4c3)cc2CN1CCNC(=O)C1CCCC1 [Compound 671]				% Inhibition (FS) (0.3 μM compound, FS1 substrate): <30%; % Inhibition (FS) (1 μM compound, FS1 substrate): 30%; % Inhibition (FS) (3 μM compound, FS1 substrate): <30%
CN(C(=O)CCC(c1ccc(-c2ccccc2)cc1)N1Cc2cc(Oc3ccccc3)ccc2N=C1N)C1CCCCC1 (centres unmarked) [Compound 420]	<30	<30	53	
CC(=O)c1ccccc1-c1ccc2c(c1)CN(Cc1cccc(C(=O)N(C)C3CCCCC3)c1)C(N)=N2 [Compound 323]	<30	<30	45	
NC1=Nc2ccc(Oc3ccccc3)cc2CN1CCC(=O)N(C1CCCCC1)C1CCCCC1 [Compound 180]	<30	<30	77	
CC(C)Oc1ccccc1Oc1ccc2c(c1)CN(Cc1cccc(C(=O)N(C)C3CCCCC3)c1)C(N)=N2 [Compound 478]	<30	<30	46	
CN(C(=O)c1cccc(CN2Cc3cc(-c4ccc5[nH]ccc5c4)ccc3N=C2N)c1)C1CCCCC1 [Compound 175]	<30	<30	37	
NC1=Nc2ccc(Oc3ccccc3)cc2CN1Cc1cccc(NC(=O)C2CCCCC2)c1 [Compound 286]	<30	<30	36	
Cc1ccccc1-c1ccc2c(c1)CN(CCNC(=O)C13CC4CC(CC(C4)C1)C3)C(N)=N2 [Compound 658]	<30	62	100	
CC(=O)c1cccc(-c2ccc3c(c2)CN(CCNC(=O)c2cc(C)oc2C)C(N)=N3)c1 [Compound 588]	<30	<30	<30	
COc1ccccc1-c1ccc2c(c1)CN([C@@H](CCC(=O)N(C)Cc1csc(-c3ccccc3)n1)C1CCCCC1)C(N)=N2 [Compound 716]				% Inhibition (FS) (0.3 μM compound, FS1 substrate): <30%; % Inhibition (FS) (1 μM compound, FS1 substrate): <30%; % Inhibition (FS) (3 μM compound, FS1 substrate): 72%
CCCC=Cc1ccc2c(c1)CN(CCNC(=O)C1CCCCC1)C(N)=N2 [Compound 577]	<30	<30	<30	
CN(C(=O)c1ccc2c(c1)C(N1Cc3cc(Oc4ccccc4)ccc3N=C1N)c1ccccc1-2)C1CCCCC1 (centres unmarked) [Compound 118]				% Inhibition (FS) (3 μM test compound, 3 µM): 48%; % Inhibition (FS) (10 μM test compound, 10 µM): 91%
NC1=Nc2ccc(Oc3ccccc3)cc2CN1CCCNC(=O)C1CCC1 [Compound 144]			39	% Inhibition (FS) (10 μM test compound): 59%
CN(C(=O)CCC(C1CCCCC1)N1Cc2cc(Oc3ccccc3)ccc2N=C1N)C1CCOCC1 (centres unmarked) [Compound 633]	<30	30	70	
NC1=Nc2ccc(Oc3ccccc3)cc2CN1C1c2ccccc2-c2c(C(=O)N(C3CCCCC3)C3CCCCC3)cccc21 (centres unmarked) [Compound 147]			<30	% Inhibition (FS) (10 μM test compound): 71%

SMILES	% Inhibition (FS) (0.3 μM test compound) [%]	% Inhibition (FS) (1 μM test compound) [%]	% Inhibition (FS) (3 μM test compound) [%]	also measured
CCCC(CNC(=O)C1CCCCC1)N1Cc2cc(Oc3ccccc3)ccc2N=C1N (centres unmarked) [Compound 554]				% Inhibition (FS) (0.3 μM test compound, 0.3 µM): <30%; % Inhibition (FS) (1 μM test compound, 1 µM): <30%; % Inhibition (FS) (3 μM test compound, 3 µM): 42%
CC(CC(=O)NCCN1Cc2cc(-c3ccccc3F)ccc2N=C1N)C(F)(F)F (centres unmarked) [Compound 681]				% Inhibition (FS) (0.3 μM compound, FS1 substrate): 67%; % Inhibition (FS) (1 μM compound, FS1 substrate): 100%
CN(C(=O)c1cccc(CN2Cc3cc([S+]([O-])c4ccccc4)ccc3N=C2N)c1)C1CCCCC1 (centres unmarked) [Compound 549]	<30	30	71	
CN(C(=O)CC[C@@H](C1CCOCC1)N1Cc2cc(Oc3ccccc3)ccc2N=C1N)[C@H]1CC[C@@H](C(=O)O)CC1 [Compound 748]				% Inhibition (FS) (0.3 μM compound, FS1 substrate, 0.3 µM): 20%; % Inhibition (FS) (1 μM compound, FS1 substrate, 1 µM): 71%; % Inhibition (FS) (3 μM compound, FS1 substrate, 3 µM): 97%
CCCCc1ccc(C(=O)NCCN2Cc3cc(Oc4ccccc4)ccc3N=C2N)cc1 [Compound 157]			<30	% Inhibition (FS) (10 μM test compound): 50%
CC(C)N(C(=O)CC(C1CCCCC1)N1Cc2cc(Oc3ccccc3)ccc2N=C1N)C1CCCCC1 (centres unmarked) [Compound 200]	<30	<30	<30	
CC(=O)N1CCC(C(=O)NCCN2Cc3cc(C4=CCCCC4)ccc3N=C2N)CC1 [Compound 705]				% Inhibition (FS) (0.3 μM compound, FS1 substrate): <30%; % Inhibition (FS) (1 μM compound, FS1 substrate): <30%; % Inhibition (FS) (3 μM compound, FS1 substrate): <30%
COC(=O)[C@H](COCc1ccccc1)N(C)C(=O)CC[C@@H](C1CCOCC1)N1Cc2cc(Oc3ccccc3)ccc2N=C1N [Compound 786]				% Inhibition (FS) (0.3 μM compound, FS1 substrate): 97%; % Inhibition (FS) (1 μM compound, FS1 substrate): 105%; % Inhibition (FS) (3 μM compound, FS1 substrate): 114%
CC(=O)Nc1ccc(Sc2ccc3c(c2)CN(Cc2cccc(C(=O)N(C)C4CCCCC4)c2)C(N)=N3)cc1 [Compound 417]	<30	<30	78	
CC(C)(C)C(=O)NCCN1Cc2cc(-c3ccccc3F)ccc2N=C1N [Compound 646]	52	72	97	
CN(C(=O)CCC(C1CCOCC1)N1Cc2cc(Oc3ccccc3)ccc2N=C1N)C1CCCCC1 (centres unmarked) [Compound 619]	119	118	125	
CN(C(=O)c1ccc(CN2Cc3cc(Oc4ccccc4)ccc3N=C2N)s1)C1CCCCC1 [Compound 503]	<30	<30	90	
CC(C)C(CC(=O)NC1CCCCC1)N1Cc2cc(Oc3ccccc3)ccc2N=C1N (centres unmarked) [Compound 401]	<30	<30	52	
CC1CCN(C(=O)CCCC(CCC(=O)N2CCC(C)CC2)N2Cc3cc(Oc4ccccc4)ccc3N=C2N)CC1 (centres unmarked) [Compound 532]	<30	<30	68	
COc1ccc(Sc2ccc3c(c2)CN(Cc2cccc(C(=O)N(C)C4CCCCC4)c2)C(N)=N3)cc1OC [Compound 411]	<30	<30	55	
CCOc1cccc(Nc2ccc3c(c2)CN(Cc2cccc(C(=O)N(C)C4CCCCC4)c2)C(N)=N3)c1 [Compound 440]	<30	35	72	
CC(C)C(CC(=O)NC1C2CC3CC(C2)CC1C3)N1Cc2cc(Oc3ccccc3)ccc2N=C1N (centres unmarked) [Compound 402]	<30	53	99	
COc1ccccc1-c1ccc2c(c1)CN(CCNC(=O)C1(C(N)=O)CC1)C(N)=N2 [Compound 488]	<30	<30	<30	
NC1=Nc2ccc(C3=CCCCC3)cc2CN1CCNC(=O)C1CCC(C(F)(F)F)CC1 (centres unmarked) [Compound 704]				% Inhibition (FS) (0.3 μM compound, FS1 substrate): <30%; % Inhibition (FS) (1 μM compound, FS1 substrate): <30%; % Inhibition (FS) (3 μM compound, FS1 substrate): <30%
CC(C)CCC(=O)NCCN1Cc2cc(-c3ccc4ccccc4c3)ccc2N=C1N [Compound 668]				% Inhibition (FS) (0.3 μM compound, FS1 substrate): <30%; % Inhibition (FS) (1 μM compound, FS1 substrate): <30%; % Inhibition (FS) (3 μM compound, FS1 substrate): <30%
